# Results: patent publication US11000529B2, “Human papilloma virus replication inhibitors” (Icosagen Cell Factory OÜ, priority 2015, dated 2021)
# Entries after “also recorded” stand apart in the source; their conditions may differ.
# Tests used:
# [1] = tested on: HPV18; experiment: HPV18 initial amplification replication assay in U2OS cells (Southern Blot); type: cell-based
# Text: FIG. 2 Effect of the identified five compounds on HPV18 initial amplification. A: U2OS cells were transfected with HPV18 wt minicircle and grown in the presence of the compounds with indicated concentrations for 5 days. Genomic DNA was extracted, linearized, and digested with DpnI. HPV genome replication signals were detected using Southern Blot analyses and quantified with phosphoimager and expressed relative to vehicle control (DMSO). Approximate IC50 values are shown for each compound. Error-bars represent standard deviation from at least three independent experiment. B: U2OS cells were transfected with the expression vectors of HPV18 E1 and E2 proteins together with HPV18 URR (origin) minicircle plasmid. The cells were grown in the presence of the compounds with indicated concentrations for 24 or 48 hours. Genomic DNA was extracted, linearized and digested with DpnI. HPV URR replication signals were detected by Southern Blot analyses. DMSO serves as vehicle control and M 18URR serves as size marker.
# (§1) Replication assay. The U2OS or U2OS-EBNA1 cells were transfected with 2 ug of HPV18 minicircle genome and lug of oriP plasmid (only in case of U2OS-EBNA1 cells). All the compounds were added to the media immediately after the transfection and media was changed on the third day. Replication signals were detected with Southern Blot method. Briefly, genomic DNA was extracted 3 and 4 days after the transfection with sh_RNAs or with the use of ABT-888 and 5 days after for analyses of the effects of HPV inhibitors w/wo CPT. DNA was digested with BglI and DpnI for analyses of HPV18 replication and with BstXI, ScaI and DpnI for analyses of HPV18 and oriP replication simultaneously. 3 ug of DNA was resolved in agarose gel, transferred to a nylon membrane (Membrane Solutions LLC) and hybridized with specific radioactively labeled probes. Signals were detected and quantified with Typhoon Trio+ phosphoimager (GE Healthcare) and exposed on an X-ray film (AGFA).
# for compounds inhibiting initial amplification of HPV18 genome in U2OS cells. HT-screening was conducted with all the compounds in this library in 5 uM and 1 uM concentrations and it gave us 80 hits (approximately 5% of analyzed compounds). After validation of the hits on HPV18 wt genome, we found five compounds inhibiting initial amplification of HPV18 in U2OS cells (FIG. 1). To further characterize the compounds, we performed replication assay described in Example 1.
# [2] = tested on: HPV18; experiment: Vegetative amplification of HPV18 in U2OS #1.13 cells, confluent; type: cell-based; conditions: U2OS #1.13, confluent, compounds added on 5th day for additional 7 days
# Experimental: (§2) FIG. 3 Effect of compounds on stable maintenance and vegetative amplification of HPV18. A: U2OS #1.13 cells were grown in subconfluent conditions in the presence of the identified five compounds for 7 days. Genomic DNA was extracted, linearized and HPV replication signal was detected by Southern Blot and B: quantified by phosphoimager. C: U2OS #1.13 were seeded and grown for 5 days without splitting. On the 5th day indicated concentrations of compounds were added to the media and the cells were grown for additional 7 days without splitting. On the 12th day genomic DNA was extracted, linearized and HPV replication signal was detected by Southern Blot and D: quantified by phosphoimager. Error-bars represent standard deviations from at least two independent experiments.
# If #1.13 is grown in confluent conditions for at least 5 days, vegetative amplification of HPV genome is turned on. We seeded equal amounts of cells onto plates and grew them for 5 days without splitting. On the 5th day various concentrations of compound were added and the cells were grown for additional 7 days (media was changed every two days throughout the experiment). HPV replication signal was detected by Southern Blot analyses and quantified with phosphoimager.
# [3] = tested on: HPV18; experiment: HPV18 replication in U2OS-EBNA1 cells, compounds alone or with CPT; type: cell-based; conditions: U2OS-EBNA1, with 2 nM CPT, 5 days
# Experimental: FIG. 5 Synergistic effect between Camptothecin (CPT) and the identified five compounds. U2OS-EBNA1 cells were transfected with HPV18 wt and oriP plasmids and grown in the presence of indicated concentrations of the compounds alone or together with 2 nM CPT for 5 days. Genomic DNA was extracted, linearized and digested with DpnI. Both HPV18 and oriP replication signals were detected with Southern Blot and quantified by phosphoimager. […] Error-bars represent standard deviations from at least three independent experiments.
# as §1
# Synergistic effect of Campthotecin (CPT) and HPV18 replication inhibitors. CPT is a Topoisomerase I inhibitor that stabilizes entrapped Top1cc complexes to DNA. Since Tdp1 is responsible for cleaving entrapped Top1cc complexes from DNA, synergistic effect between CPT and Tdp1 inhibitors occurs. In the experiments shown in FIG. 5 we used U2OS cells constitutively expressing Epstein Barr virus (EBV) EBNA1 protein—U2OS-EBNA1. These cells allow to monitor HPV and EBNA1 supported oriP plasmid replication simultaneously. […] U2OS-EBNA1 cells were cotransfected with HPV18 genome and oriP plasmid and the cells were grown in the presence of various concentrations of the identified HPV inhibitors alone or together with 2 nM of CPT for 5 days, DMSO was used as vehicle control.
# [4] = tested on: HPV18E1E2 mutant genome; experiment: HPV18E1E2 mutant genome replicated by HPV11 E1 and E2 in U2OS cells; type: cell-based, HPV18; conditions: U2OS co-transfected with HPV18E1E2 mutant and HPV11 wt minicircle, 5 days
# Text: Besides oncoproteins E6 and E7, HPVs differ from replication proteins E1 and E2 as well. To determine if the compounds identified here inhibit the replication of HR but not LR or cutaneous HPVs through E1 or E2, HPV18E1E2 mutant genome (deficient in replication due to mutations in the ORFs of E1 and E2) was replicated by E1 and E2 proteins originating from HPV11. HPV18E1E2 mutant genome alone was used as control. U2OS cells were co-transfected with HPV18E1E2 mutant and HPV11 wt mini circle genome and the cells were grown in the presence of compound 305831 for 5 days, media was changed on the 3rd day. DMSO was added as vehicle control. Genomic DNA was extracted, HPV DNA was digested with AgeI, SdaI and DpnI. HPV replication was detected by Southern Blot analyses. Results on FIG. 7 show, that HPV18E1E2 mutant genome is indeed replication-deficient when transfected alone (lane 7). […] The activity of LR-HPV E1 and E2 proteins or their interactome seem to be different compared to HR-HPV replication proteins.
# [5] = tested on: HPV18; experiment: Stable maintenance of HPV18 in U2OS #1.13 cells, subconfluent; type: cell-based; conditions: U2OS #1.13, subconfluent, 7 days
# Experimental: as §2
# Our U2OScell-based system is suitable for studying all three replication stages of various HPV subtypes. Stable maintenance phase could be monitored by maintaining HPV-positive cells in subconfluent conditions. We used HPV18 positive monoclonal U2OS cell-line #1.13 with viral copy number ˜2000. We grew the #1.13 cells in the presence of various concentration of compounds in subconfluent conditions (cells were split every three days) for 7 days. HPV18 replication signal was detected by Southern blot analyses and quantified with phosphoimager. About 50% of the signal was lost in case of compound 82269 compared to the DMSO control (FIG. 3, panel A, compare lanes 4-6 with lane 15 and panel B).
# [6] = molecular target: Tdp (Homo sapiens, UniProt Q9NUW8); conditions: known from the literature; cited from earlier work
# Sequence of Tdp (Q9NUW8 whole entry): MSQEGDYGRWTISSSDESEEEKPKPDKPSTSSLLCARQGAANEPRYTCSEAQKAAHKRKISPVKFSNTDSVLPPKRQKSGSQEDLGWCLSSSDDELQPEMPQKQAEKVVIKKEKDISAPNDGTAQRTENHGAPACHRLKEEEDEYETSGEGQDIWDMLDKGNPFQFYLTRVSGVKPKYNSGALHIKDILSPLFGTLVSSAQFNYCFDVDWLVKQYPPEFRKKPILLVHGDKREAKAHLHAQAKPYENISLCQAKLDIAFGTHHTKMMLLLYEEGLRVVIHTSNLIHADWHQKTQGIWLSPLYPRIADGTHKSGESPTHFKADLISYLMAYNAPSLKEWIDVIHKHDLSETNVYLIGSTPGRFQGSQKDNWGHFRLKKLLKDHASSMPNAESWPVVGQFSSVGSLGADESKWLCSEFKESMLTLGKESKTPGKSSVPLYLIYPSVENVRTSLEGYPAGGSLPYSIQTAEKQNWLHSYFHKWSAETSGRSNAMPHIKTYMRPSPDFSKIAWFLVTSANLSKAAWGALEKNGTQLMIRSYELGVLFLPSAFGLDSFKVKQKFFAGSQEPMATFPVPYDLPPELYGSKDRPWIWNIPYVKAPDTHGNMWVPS
compound,measurement,setting,value
[H]/N=C(\N)c1ccc(-c2ccc(-c3ccc(C(=N)N)cc3)o2)cc1 [NSC 305831],IC50,"[1]; 120 h, read-out: IC50 of HPV18 initial amplification",2.5 to 60 µM
same,inhibition of HPV18 initial amplification,"[1]; HPV18 wt minicircle, 5 days, Southern Blot, relative to DMSO",concentration-dependent inhibition
same,effect on vegetative amplification of HPV18,[2],almost completely abolished amplification; also recorded: clearly inhibit
same,synergistic effect together with CPT on HPV18 replication,[3],clear concentration dependent synergistic effect; also recorded: clear synergistic inhibition
same,HPV18 replication carried out by E1 and E2 proteins originating from HPV11,[4],no inhibition of HPV18 replication
same,effect on stable maintenance of HPV18,[5],clearly inhibit
same,HPV18 replication signal lost,[5]; compared to DMSO control,about 70%
same,Tdp inhibition,[6],known to inhibit Tdp
